Assays:
L. infantum amastigotes = test: Antiamastigote assay (L. infantum), ex vivo intracellular model of mice macrophages, microscopy; format: cell-based, Leishmania (L.) infantum; details: Leishmania infantum, Peritoneal macrophage, 96 h, ± SD, intracellular, peritoneal macrophages, read-out: L. infantum IC50 amastigotes
Procedure: (§1) Table 1 depicts the antileishmanial (L. infantum) activity evaluation performed against both the amastigote form (evaluated microscopically using an ex vivo intracellular model of mice macrophages) and the promastigote one (using an MTT colorimetric method).[32],[33] The cytotoxicity was evaluated against NCTC cells using an MTT colorimetric method and the selectivity index was determined using the ratio between the CC50 values (NCTC cells) and the IC50 values (amastigotes).[32] […] With respect to the substituents on the C ring, larger, hydrophobic groups conferred greater bioactivity (e.g., 9b–d), whereas small, hydrophilic groups such as a hydroxyl group afford modest to poor bioactivity.
(§2) Leishmania (L.) infantum (MHOM/BR/1972/LD) amastigotes were obtained from golden hamsters (Mesocricetus auratus) spleens following 60-70 days of infection via differential centrifugation. The Stauber method was used to determine the number of parasites.12 […]
(§3) Peritoneal macrophages were obtained via washing the peritoneal cavity of BALB/c mice with 10% foetal calf serum supplemented RPMI-1640 medium (pH 7.2). The macrophages were maintained in a humidified incubator at 37 °C and with 5% CO2.
(§4) Biological activity assays […]
Antiamastigote Assay (L. infantum)
Peritoneal macrophages (1 × 10^5/well) were added to a 16-well slide chambers (NUNC) and incubated with 5% CO2 at 37 °C. The cells were subsequently infected with L. infantum amastigotes (10:1 amastigotes/macrophage) for 24 h. Treatment of the cells with selected compounds (serially diluted 1.2 to 150 μM) was performed in a humidified incubator for 96 h at 37 °C and with 5% CO2. Untreated cells were used as a negative control and miltefosine was used as a standard drug. The treated cells were fixed on slides with methanol, stained with Giemsa and observed under a light microscope.13 The infection index was used in order to determine the half inhibitory concentration (IC50) (no. infected macrophages × no. amastigotes / total no. […]

[1] = system: L. infantum promastigotes; test: Antipromastigote assay (L. infantum), MTT colorimetric; format: cell-based, Leishmania (L.) infantum; details: Leishmania infantum; ± SD; MTT, 48 h; read-out: L. infantum IC50 promastigotes
Procedure: as §1, §2
Biological activity assays
Antipromastigote Assay (L. infantum)
L. infantum promastigotes (1 × 10^6 cells/well) were added to a 96-well plates. Treatment of the cells with selected compounds (serially diluted 0.14 to 200 μM) was performed in M199 medium supplemented with 0.25% hemin and 10% fetal bovine serum for 48 h at 24 °C. The MTT colorimetric assay was used to determine the activity (IC50) of the compounds. Miltefosine was used as a standard drug and untreated promastigotes were used as a negative control. The half inhibitory concentration (IC50) was determined from a sigmoidal regression of the concentration-response curves generated in GraphPadPrism7. […]

T. cruzi amastigotes = test: Antiamastigote assay (T. cruzi), ex vivo intracellular model using mice macrophages, microscopy; format: cell-based, Trypanosoma (T.) cruzi; details: Trypanosoma cruzi, Peritoneal macrophage, 48 h, ± SD, read-out: T. cruzi IC50 amastigotes
Procedure: T. cruzi also assumes several cell morphologies during its lifecycle, which differ between the insect vector and mammalian host. In the latter environment, the parasite transitions between extracellular bloodstream trypomastigotes and intracellular amastigotes; both forms are clinically relevant, particularly during the acute stage of Chagas disease.[34] In this work, antitrypanosomal activity was tested against both the amastigote form (evaluated microscopically using an ex vivo intracellular model using mice macrophages) and the trypomastigote form (using the resazurin in vitro assay).[33],[35] […] In silico predictions of pharmacokinetic profiles were carried out using the SwissADME webtool (see the Supporting Information for details).[36] […]
[…] Cultivation was performed in 2% fetal calf serum supplemented RPMI-1640 medium.
The trypomastigotes were maintained in a humidified incubator at 37 °C and with 5% CO2. […]
as §3, §4
Peritoneal macrophages (1 × 10^5 cells/well) obtained from the peritoneal cavity of BALB/C mice were added to 16-well chambers (NUNC, Thermo Fischer Scientific). The cells were infected with trypomastigotes (10:1 parasites/macrophage) for 2 h. Then treatment of the infected macrophages with selected compounds (serially diluted 1.2 to 100 μM) was performed in a humidified incubator for 48 h at 37 °C and with 5% CO2. The treated cells were fixed on slides using methanol, stained with Giemsa and observed under a light microscope (EVOS M5000, Thermo, USA) with digital image equipment. The infection index was used in order to determine the half inhibitory concentration (IC50) (no. infected macrophages × no. amastigotes / total no.

| SMILES | IC50 (L. infantum amastigotes) | IC50 [1] | IC50 (T. cruzi amastigotes) |
| --- | --- | --- | --- |
| COc1cc2c(cc1OC)[C@@H](Cc1ccc(Oc3cc(C[C@H]4c5cc(OC)c(OC)cc5CCN4C)ccc3OC)cc1)N(C)CC2 [(S,R)-11, (−)-O,O′-dimethylgrisabine] | > 150 µM | 0.8 ± 0.01 µM | 2.2 ± 0.7 µM |
| COc1cc2c(cc1OC)[C@H](Cc1ccc(OC)c(OCc3ccccc3)c1)N(C)CC2 [(S)-9b] | 26.7 ± 2 µM | 8.6 ± 0.8 µM | 12.2 ± 0.5 µM |
| COc1cc2c(cc1OC)[C@H](Cc1ccc(Br)cc1)N(C)CC2 [(S)-9a] | 13.3 ± 0.9 µM | 18.4 ± 2.1 µM | 25.1 ± 3.1 µM |

Reference: publication PMC10900488, “Synthesis and Evaluation of (Bis)benzyltetrahydroisoquinoline Alkaloids as Antiparasitic Agents” (JACS Au, 2024)
